system: HDAC; assay: HDAC inhibition assay using an aminocoumarin derivative of an omega-acetylated lysine as substrate; assay type: biochemical; conditions: compound concentration 10 nM
Protocol: To determine the HDAC inhibitory properties of the compounds of the invention an assay was performed using an aminocoumarin derivative of an omega-acetylated lysine as substrate for the enzyme. This assay has been described in detail in the literature (Nucleic Acid Research 1999, 27, 2057–2058. Using the protocol described therein, the inhibitory effect of representative compounds was determined at a concentration of 10 nM. The observed inhibition rates for selected compounds are shown in Table 1: […]

| SMILES | Inhibitory effect at 10 nM in % [%] |
| --- | --- |
| O=C(CCCCCCCN1c2cccc3cccc(c23)S1(=O)=O)NO [Example 1, 8-(1,1-dioxo-2H-naphtho[1,8-cd]isothiazol-2-yl)-octanoic acid hydroxyamide] | 64 |
| O=C(CCCCCCN1c2cccc3cccc(c23)S1(=O)=O)NO [Example 2, 7-(1,1-dioxo-2H-naphtho[1,8-cd]isothiazol-2-yl)-heptanoic acid hydroxyamide] | 90 |
| O=C(CCCCCCCN1C(=O)c2cccc3cccc1c23)NO [Example 3, 8-(2-oxo-2H-benzo[cd]indol-1-yl)-octanoic acid hydroxyamide] | 82 |

Source: patent US7091229B2, “Tricyclic lactam and sultam derivatives and their use as histone deacetylase inhibitors” (Hoffman-La Roche Inc., priority 2001, dated 2006)
